# Measured values from US5776944A, “7-(4-aminomethyl-3-methyloxyiminopyrroplidin-1-yl)-1-cyclopropyl-6-flu oro-4-oxo-1,4-dihydro-1,8-naphthyridine-3-carboxylic acid and the process for the preparation thereof” (LG Chemical Ltd., priority 1994, dated 1998).
# Like-named read-outs stand apart in the source and are kept apart here.
# Legend:
# Assay type in all cases: cell-based
# [1] = tested on: Escherichia coli TEM9 2639E; test: microbe, parasite or virus in culture; conditions: TEM92639E, 18 h, read-out: Minimum Inhibitory Concentration
# [2] = tested on: Pseudomonas aeruginosa 10145; test: In vitro antibacterial activity (MIC, agar dilution), Biological Example 1; conditions: 18 h; Pseudomonas aeruginosa 10145, Table 25; read-out: Minimum Inhibitory Concentration
# [3] = tested on: Escherichia coli TEM3 3455E; test: microbe, parasite or virus in culture; conditions: TEM33455E, 18 h, read-out: Minimum Inhibitory Concentration
# [4] = tested on: Staphylococcus aureus giorgio; test: In vitro antibacterial activity (MIC, agar dilution), Biological Example 1; conditions: 18 h, Table 25, read-out: Minimum Inhibitory Concentration
# Micrococcus luteus 9341 = test: as above; conditions: 18 h; Micrococcus luteus 9341, Table 25; read-out: Minimum Inhibitory Concentration
# Escherichia coli 3190Y = test: as above; conditions: 18 h, Table 25, read-out: Minimum Inhibitory Concentration
# Bacillus subtilis 6633 = test: as above; conditions: 18 h; Bacillus subtilis 6633, Table 25; read-out: Minimum Inhibitory Concentration
# [5] = tested on: Escherichia coli TEM5 3739E; test: microbe, parasite or virus in culture; conditions: TEM53739E, 18 h, read-out: Minimum Inhibitory Concentration
# [6] = tested on: Acinetobacter calcoaceticus 15473; test: In vitro antibacterial activity (MIC, agar dilution), Biological Example 1; conditions: read-out: Minimum Inhibitory Concentration
# [7] = tested on: Klebsiella aerogenes 1976E; test: as above; conditions: 18 h, Table 25, read-out: Minimum Inhibitory Concentration
# [8] = tested on: Staphylococcus epidermidis 178; test: as above; conditions: 18 h; Staphylococcus epidermidis 178, Table 25; read-out: Minimum Inhibitory Concentration
# [9] = tested on: Enterobacter cloacae 1194E; test: microbe, parasite or virus in culture; conditions: 18 h, read-out: Minimum Inhibitory Concentration
# Staphylococcus aureus 77 = test: In vitro antibacterial activity (MIC, agar dilution), Biological Example 1; conditions: 18 h; Staphylococcus aureus 77, Table 25; read-out: Minimum Inhibitory Concentration
# [10] = tested on: Streptococcus faecalis 29212; test: as above; conditions: Enterococcus faecalis, 18 h; Streptococcus faecalis 29212, Table 25; read-out: Minimum Inhibitory Concentration
# [11] = tested on: Klebsiella aerogenes 1082E; test: as above; conditions: 18 h, Table 25, read-out: Minimum Inhibitory Concentration
# [12] = tested on: Staphylococcus aureus 241; test: as above; conditions: 18 h; Staphylococcus aureus 241, Table 25; read-out: Minimum Inhibitory Concentration
# [13] = tested on: Pseudomonas aeruginosa 1912E; test: as above; conditions: 18 h, read-out: Minimum Inhibitory Concentration
# Escherichia coli 851E = test: as above; conditions: 18 h, Table 25, read-out: Minimum Inhibitory Concentration
# [14] = tested on: Salmonella typimurium 14028; test: as above; conditions: 18 h; Salmonella typimurium 14028, Table 25; read-out: Minimum Inhibitory Concentration
# Enterobacter cloacae P99 = test: microbe, parasite or virus in culture; conditions: P99, 18 h, read-out: Minimum Inhibitory Concentration
# [15] = tested on: Citrobacter diversus 2046E; test: In vitro antibacterial activity (MIC, agar dilution), Biological Example 1; conditions: Citrobacter koseri, 18 h, Table 25, read-out: Minimum Inhibitory Concentration
# Escherichia coli 10536 = test: as above; conditions: read-out: Minimum Inhibitory Concentration
# [16] = tested on: Staphylococcus epidermidis 887E; test: as above; conditions: 18 h, Table 25, read-out: Minimum Inhibitory Concentration
# [17] = tested on: Staphylococcus aureus 6538p; test: as above; conditions: 18 h, Table 25, read-out: Minimum Inhibitory Concentration
# [18] = Acinetobacter calcoaceticus, 15473, 18 h
# [19] = 18 h, Acinetobacter calcoaceticus 15473, Table 25
# [20] = Pseudomonas aeruginosa 1912E, Table 25
# [21] = 18 h, Escherichia coli 10536, Table 25
SMILES,MIC [1],MIC [2],MIC [3],MIC [4],MIC (Micrococcus luteus 9341),MIC (Escherichia coli 3190Y),MIC (Bacillus subtilis 6633),MIC [5],MIC [7],MIC [8],MIC [9],MIC (Staphylococcus aureus 77),MIC [10],MIC [11],MIC [12],MIC (Escherichia coli 851E),MIC [14],MIC (Enterobacter cloacae P99),MIC [15],MIC [16],further results
"CON=C1CN(c2nc3c(cc2F)c(=O)c(C(=O)O)cn3C2CC2)CC1CN (stereo not drawn) [Example 180, 7-(4-aminomethyl-3-methoxyiminonyrrolidin-1-yl)-1-cyclopropyl-6-fluoro-4-oxo-1,4-dihydro[1,8]naphthyridine-3-carboxylic acid]",0.031 µg/mL,0.25 µg/mL,0.25 µg/mL,≤ 0.008 µg/mL,0.13 µg/mL,≤ 0.008 µg/mL,≤ 0.008 µg/mL,0.13 µg/mL,0.13 µg/mL,2 µg/mL,0.031 µg/mL,≤ 0.008 µg/mL,0.063 µg/mL,0.016 µg/mL,2 µg/mL,≤ 0.008 µg/mL,0.031 µg/mL,≤ 0.008 µg/mL,0.016 µg/mL,≤ 0.008 µg/mL,"MIC [6, 18]: 0.0634 µg/mL; MIC ([13]; Pseudomonas aeruginosa, 1912E): 0.25 µg/mL; MIC (Escherichia coli 10536; Escherichia coli, 10536, 18 h): ≤ 0.008 µg/mL; MIC [17]: ≤ 0.008 µg/mL"
CC(C)ON=C1CN(c2nc3c(cc2F)c(=O)c(C(=O)O)cn3C2CC2)CC1CN (stereo not drawn) [Example 97],0.031 µg/mL,1 µg/mL,0.13 µg/mL,≤ 0.008 µg/mL,0.063 µg/mL,≤ 0.008 µg/mL,≤ 0.008 µg/mL,0.063 µg/mL,0.25 µg/mL,1 µg/mL,0.063 µg/mL,0.016 µg/mL,0.063 µg/mL,0.13 µg/mL,2 µg/mL,0.031 µg/mL,0.13 µg/mL,≤ 0.008 µg/mL,0.063 µg/mL,≤ 0.008 µg/mL,"MIC [6, 19]: 0.016 µg/mL; MIC [13, 20]: 1 µg/mL; MIC (Escherichia coli 10536; [21]): ≤ 0.008 µg/mL; MIC [17]: ≤ 0.008 µg/mL"
"NCC1CN(c2cc3c(cc2F)c(=O)c(C(=O)O)cn3C2CC2)CC1=NOCc1ccccc1 (stereo not drawn) [Example 12, 7-(4-animomethyl-3-benzyloxyimino-pyrrolidin-1-yl)-1-cyclcopropyl-6-fluoro-1,4-dihydro-4-oxoquinoline-3-carboxylic acid]",0.25 µg/mL,0.5 µg/mL,0.5 µg/mL,≤ 0.008 µg/mL,0.13 µg/mL,0.016 µg/mL,≤ 0.008 µg/mL,0.25 µg/mL,1 µg/mL,0.5 µg/mL,0.13 µg/mL,≤ 0.008 µg/mL,0.031 µg/mL,0.13 µg/mL,1 µg/mL,0.063 µg/mL,0.25 µg/mL,0.063 µg/mL,0.13 µg/mL,≤ 0.008 µg/mL,"MIC [6, 19]: 0.016 µg/mL; MIC [13, 20]: 2 µg/mL; MIC (Escherichia coli 10536; [21]): ≤ 0.008 µg/mL; MIC [17]: ≤ 0.008 µg/mL"
"CC1COc2c(N3CCN(C)CC3)c(F)cc3c(=O)c(C(=O)O)cn1c23 (stereo not drawn) [OFLX, ofloxacin, reference compound]",0.063 µg/mL,2 µg/mL,0.5 µg/mL,0.25 µg/mL,2 µg/mL,0.016 µg/mL,0.063 µg/mL,0.5 µg/mL,0.25 µg/mL,32 µg/mL,0.063 µg/mL,0.25 µg/mL,2 µg/mL,0.063 µg/mL,64 µg/mL,0.063 µg/mL,0.13 µg/mL,≤ 0.008 µg/mL,0.063 µg/mL,0.25 µg/mL,"MIC [6, 19]: 0.25 µg/mL; MIC ([13]; Pseudomonas aeruginosa, 1912E): 0.5 µg/mL; MIC (Escherichia coli 10536; [21]): 0.031 µg/mL; MIC [17]: 0.25 µg/mL"
C#CCCON=C1CN(c2nc3c(cc2F)c(=O)c(C(=O)O)cn3C2CC2)CC1CN (stereo not drawn) [Example 104],0.031 µg/mL,1 µg/mL,0.25 µg/mL,≤ 0.008 µg/mL,0.13 µg/mL,≤ 0.008 µg/mL,≤ 0.008 µg/mL,0.13 µg/mL,0.13 µg/mL,4 µg/mL,≤ 0.008 µg/mL,≤ 0.008 µg/mL,0.031 µg/mL,0.031 µg/mL,8 µg/mL,≤ 0.008 µg/mL,0.031 µg/mL,0.016 µg/mL,≤ 0.008 µg/mL,0.016 µg/mL,"MIC [6, 19]: ≤ 0.008 µg/mL; MIC [13, 20]: 1 µg/mL; MIC (Escherichia coli 10536; [21]): ≤ 0.008 µg/mL; MIC [17]: ≤ 0.008 µg/mL"
C#CCON=C1CN(c2nc3c(cc2F)c(=O)c(C(=O)O)cn3C2CC2)CC1CN (stereo not drawn) [Example 103],0.031 µg/mL,0.5 µg/mL,0.13 µg/mL,≤ 0.008 µg/mL,0.13 µg/mL,≤ 0.008 µg/mL,≤ 0.008 µg/mL,0.063 µg/mL,0.063 µg/mL,4 µg/mL,0.016 µg/mL,≤ 0.008 µg/mL,0.031 µg/mL,0.031 µg/mL,4 µg/mL,≤ 0.008 µg/mL,0.031 µg/mL,≤ 0.008 µg/mL,0.13 µg/mL,≤ 0.008 µg/mL,"MIC [6, 19]: 0.031 µg/mL; MIC [13, 20]: 0.5 µg/mL; MIC (Escherichia coli 10536; [21]): ≤ 0.008 µg/mL; MIC [17]: ≤ 0.008 µg/mL"
CC(C)CON=C1CN(c2nc3c(cc2F)c(=O)c(C(=O)O)cn3C2CC2)CC1CN (stereo not drawn) [Example 102],0.063 µg/mL,2 µg/mL,0.5 µg/mL,≤ 0.008 µg/mL,0.063 µg/mL,≤ 0.008 µg/mL,≤ 0.008 µg/mL,0.25 µg/mL,0.5 µg/mL,1 µg/mL,0.25 µg/mL,0.016 µg/mL,0.063 µg/mL,0.25 µg/mL,4 µg/mL,0.063 µg/mL,0.25 µg/mL,0.031 µg/mL,0.13 µg/mL,≤ 0.008 µg/mL,"MIC [6, 19]: 0.063 µg/mL; MIC [13, 20]: 2 µg/mL; MIC (Escherichia coli 10536; [21]): ≤ 0.008 µg/mL; MIC [17]: 0.016 µg/mL"
"CON=C1CN(c2c(F)cc3c(=O)c(C(=O)O)cn(C4CC4)c3c2Cl)CC1CN (stereo not drawn) [Example 178, 7-(4-aminomethyl-3-methoxyiminopyrrolidin-1-yl)-8-chloro-1-cycloprooyl-6-fluoro-4-oxo-1,4-dihydroquinoline-3-carboxylic acid]",0.25 µg/mL,1 µg/mL,1 µg/mL,0.016 µg/mL,0.25 µg/mL,0.016 µg/mL,0.016 µg/mL,0.5 µg/mL,0.5 µg/mL,1 µg/mL,0.13 µg/mL,0.031 µg/mL,0.063 µg/mL,0.25 µg/mL,1 µg/mL,0.063 µg/mL,0.063 µg/mL,0.063 µg/mL,0.13 µg/mL,0.031 µg/mL,"MIC [6, 18]: 0.13 µg/mL; MIC ([13]; Pseudomonas aeruginosa, 1912E): 0.5 µg/mL; MIC (Escherichia coli 10536; Escherichia coli, 10536, 18 h): 0.031 µg/mL; MIC [17]: 0.031 µg/mL"
"NCC1CN(c2c(F)c(N)c3c(=O)c(C(=O)O)cn(C4CC4)c3c2F)CC1=NOCc1ccccc1 (stereo not drawn) [Example 56, 5-amino-7-(4-aminomethyl-3-benzyloxylmino-pyrrolidin-1-yl)-1-cyclopropyl6,8-difluoro-1,4-dihydro-4-oxoquinoline-3-carboxylic acid]",0.063 µg/mL,2 µg/mL,0.5 µg/mL,≤ 0.008 µg/mL,0.063 µg/mL,≤ 0.008 µg/mL,≤ 0.008 µg/mL,0.25 µg/mL,0.5 µg/mL,2 µg/mL,0.031 µg/mL,≤ 0.008 µg/mL,0.016 µg/mL,0.016 µg/mL,2 µg/mL,≤ 0.008 µg/mL,0.031 µg/mL,≤ 0.008 µg/mL,0.016 µg/mL,≤ 0.008 µg/mL,"MIC [6, 19]: ≤ 0.008 µg/mL; MIC [13, 20]: 2 µg/mL; MIC (Escherichia coli 10536; [21]): ≤ 0.008 µg/mL; MIC [17]: ≤ 0.008 µg/mL"
